As a reminder, the inhibition is the drop in the measured response relative to a control, in per cent. The term % Inhibition denotes the relative decrease from the control value, in per cent.

Sequence of hKv1.5 (P22460 whole entry): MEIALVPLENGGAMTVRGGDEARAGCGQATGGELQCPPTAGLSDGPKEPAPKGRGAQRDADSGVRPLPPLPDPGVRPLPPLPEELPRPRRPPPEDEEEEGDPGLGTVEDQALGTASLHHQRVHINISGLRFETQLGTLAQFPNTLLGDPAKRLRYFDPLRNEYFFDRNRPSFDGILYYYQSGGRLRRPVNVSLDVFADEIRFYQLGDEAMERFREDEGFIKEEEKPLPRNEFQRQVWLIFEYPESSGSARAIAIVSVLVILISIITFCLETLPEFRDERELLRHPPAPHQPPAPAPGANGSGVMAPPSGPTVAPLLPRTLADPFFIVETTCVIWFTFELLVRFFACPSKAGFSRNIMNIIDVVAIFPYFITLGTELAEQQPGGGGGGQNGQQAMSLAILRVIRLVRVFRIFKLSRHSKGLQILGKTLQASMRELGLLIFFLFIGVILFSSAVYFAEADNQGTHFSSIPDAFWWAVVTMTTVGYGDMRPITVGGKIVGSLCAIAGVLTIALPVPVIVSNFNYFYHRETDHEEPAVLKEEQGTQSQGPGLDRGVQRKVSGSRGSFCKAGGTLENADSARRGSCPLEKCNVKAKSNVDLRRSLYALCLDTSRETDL

The target of this assay is hKv1.5 (Homo sapiens, UniProt P22460). In words: Kv1.5 Autopatch Electrophysiology (whole cell patch-clamp). It counts as cell-based. The following applies: compound at 1µM, room temperature (22-24°C), held at -80mV, step to 0mV for 1000ms, total charge measured. The protocol:
The external bathing solution contained (in mM): 150 NaCl, 10 KCl, […], 3 MgCl2, 1 CaCl2, 10 HEPES, pH 7.4. Patch pipettes were filled with an electrode solution of composition (in mM): 160 KCl, 0.5 MgCl2, 10 HEPES, 1 EGTA, pH 7.4 with KOH.
Compounds were dissolved in DMSO (100 %) and made up in the external bather at a concentration of 1µM. All experiments were conducted at room temperature (22-24°C).
A cell suspension (10 ml), with a density of 100,000 cells/ml, was aliquoted into a 15ml centrifuge tube and transferred to an incubator (37°C, 5% CO2) for approximately one hour before use. Following 60 min incubation, a tube was taken and centrifuged at 1000 rpm for 4 mins at room temperature. 9.5 ml supernatant was thence discarded, leaving a cell pellet at the bottom of the tube. The pellet was then resuspended using 100 µl of cold (4 °C), filtered (0.22 µm), 0.2 % BSA/bather solution (0.02g BSA/10ml bather). The bottom of the tube was manually agitated gently until the solution became cloudy with cells. The 100 µl cell resuspension solution was then stored on the bench at 4 °C (using a Peltier-based temperature control device) until used.
A length of capillary glass (1B150F-4, WPI) was dipped into the cell suspension solution, such that - 3 cm column of fluid was taken up by capillary action. A Ag/AgCl wire was dropped into the non-dipped end of the capillary also. The outside of the solution-filled end of the capillary was then dried and the capillary was loaded into the AutoPatch™. Borosilicate glass patch pipettes (from 1.5mm OD, thin-walled filamented, GC150-TF capillary glass, Harvard) were pulled using a DMZ pipette puller (Zeitz Instruments), and were back-filled using the internal pipette solution, being careful that no bubbles remain at the tip or in the body of the pipette. Patch pipettes typically had resistances of 2.3-3.5 MΩ. Once filled, the pipette tip and a proportion of the shaft (- 15 mm) were dipped into Sigmacote (Sigma). The recording pipette was then loaded into the AutoPatch™.
Automated patch-clamping was initiated by the operator, but thereafter AutoPatch.exe continued the experiment providing that pre-set conditions and criteria were satisfied.
Whole cell patch-clamp recordings were made using the AutoPatch™ rig, which incorporated an EPC9 amplifier (HEKA, Germany) under control of Pulse software (v8.54, HEKA, Germany), a motion controller with 2 translators (Newport, UK), valve controller (VF1) and a c-level suction device all at room temperature (22-24°C). This equipment was completely under the control of AutoPatch.exe and operator intervention was only made when there was a requirement to refill the drug reservoirs or to prevent the loss of a cell due to a technical error. Cells with an Rseries greater than 18 MΩ were discounted from the experiment.
Qualification stages prior to perfusion and drug application ensured that the observed current met the criteria for the experiment. Only those cells with an IK > 500 pA were used for experiments. Cells were continuously perfused with external solution at a flow rate of 1.8-2 ml/minute. […] Online analysis of the hKv1.5 current during the application of compounds was performed by the AutoPatch™ software. Voltage-step protocols and analysis of data was performed as described for conventional electrophysiology.
Electrophysiology voltage-step protocols and analysis of data was performed as follows. Data was sampled at 5kHz, and filtered with a -3 dB bandwidth of 2.5kHz. Cells were held at a voltage of -80mV. Currents were evoked to a voltage step for 1000ms in duration at 0mV every 5s. Currents were analysed using Pulsefit software (v8.54, HEKA, Germany), with the total charge measured during the whole of the voltage step. All other plots were produced using Igor Pro (WaveMetrics).
`COc1ccc(-c2csc3ncnc(NCc4ccccn4)c23)cc1` [Example 138, [5-(4-Methoxy-phenyl)-thieno[2,3-d]pyrimidin-4-yl]-pyridin-2-ylmethyl-amine] came in with an inhibition at 1 µM of 92.6%.
Compound `CC(Nc1ncnc2scc(-c3ccccc3)c12)c1ccccn1` (centres unmarked) [Example 149, (5-Phenyl-thieno[2,3-d]pyrimidin-4-yl)-(1-pyridin-2-yl-ethyl)-amine] displayed an inhibition at 1 µM of 78%.
The same measure, in the same setting: the same measure for `Cc1cccnc1CNc1ncnc2scc(-c3ccccc3)c12` [Example 156, (3-methyl-pyridin-2-ylmethyl)-(5-phenyl-thieno[2,3-d]pyrimidin-4-yl)-amine]: 92%; for `CCOC(=O)c1cccnc1CNc1ncnc2scc(-c3ccccc3)c12` [Example 160, 2-[(5-Phenyl-thieno[2,3-d]pyrimidin-4-ylamino)-methyl]-nicotinic acid ethyl ester]: 80%.
The same measure, in the same setting: as for `Cc1cccc(CNc2ncnc3sc(C)c(-c4ccccc4)c23)n1` [Example 166, 6-methyl-N-[(6-methylpyridin-2-yl)methyl]-5-phenylthieno[2,3-d]pyrimidin-4-amine], the figure is 97%; as for `Cc1cccc(CNc2ncnc3sc(Br)c(-c4ccccc4)c23)n1` [Example 167, 6-bromo-N-[(6-methylpyridin-2-yl)methyl]-5-phenylthieno[2,3-d]pyrimidin-4-amine], 99%.
On to `COCCNc1nc(NCc2ccccn2)c2c(-c3ccccc3)csc2n1` [Example 189, N^2-(2-Methoxyethyl)-5-phenyl-N^4-(pyridin-2-ylmethyl)thieno[2,3-d]pyrimidine-2,4-diamine], for which the inhibition at 1 µM turned out to be 97.4%.
The same measure, in the same setting: as for `Nc1nc(NCc2ccccn2)c2c(-c3ccccc3)csc2n1` [Example 192, 5-Phenyl-N-4-pyridin-2-ylmethyl-thieno[2,3-d]pyrimidine-2,4-diamine], the figure is 90%; as for `CN(C)c1nc(NCc2ccccn2)c2c(-c3ccccc3)csc2n1` [Example 198, N^2,N^2-Dimethyl-5-phenyl-N^4-pyridin-2-ylmethyl-thieno[2,3-d]pyrimidine-2,4-diamine], 98.1%.
Still for that read-out and setting: the same measure for `OCC(O)CNc1nc(NCc2ccccn2)c2c(-c3ccccc3)csc2n1` (centres unmarked) [Example 214, 3-{5-Phenyl-4-[(pyridin-2-ylmethyl)-amino]-thieno[2,3-d]pyrimidin-2-ylamino}-propane-1,2-diol]: 87%; for `CN1CCN(c2nc(NCc3ccccn3)c3c(-c4ccccc4)csc3n2)CC1` [Example 215, [2-(4-Methyl-piperazin-1-yl)-5-phenyl-thieno[2,3-d]pyrimidin-4-yl]-pyridin-2-ylmethyl-amine]: 82%; for `CNC(=O)Cc1nc(NCc2ccccn2)c2c(-c3ccccc3)csc2n1` [Example 287, N-Methyl-2-{5-phenyl-4-[{pyridin-2-ylmethyl)amino]thieno[2,3-d]pyrimidin-2-yl}acetamide]: 91%.
Still for that read-out and setting: the same measure for `CN(C)Cc1nc(NCc2ccccn2)c2c(-c3ccccc3)csc2n1` [Example 302, (2-Dimethylaminomethyl-5-phenylthieno[2,3-d]pyrimidin-4-yl)pyridin-2-ylmethylamine]: 76%; for `c1ccc(-c2csc3nc(CN4CCOCC4)nc(NCc4ccccn4)c23)cc1` [Example 303, (2-Morpholin-4-ylmethyl-5-phenyl-thieno[2,3-d]pyrimidin-4-yl)-pyridin-2-ylmethyl-amine]: 63%.
On to `CNCc1nc(NCc2ccccn2)c2c(-c3ccccc3)csc2n1` [Example 304, (2-Methylaminomethyl-5-phenyl-thieno[2,3-d]pyrimidin-4-yl)-pyridin-2-ylmethyl-amine], for which the inhibition at 1 µM worked out at 58%.
Same read-out and setting: the same measure for `COCc1nc(NCc2ccccn2)c2c(-c3ccccc3)csc2n1` [Example 305, (2-Methoxymethyl-5-phenylthien[2,3-d]primidin-4-yl)pyridin-2-ylmethylamine]: 94%; for `CN(C)c1ccc(-c2csc3ncnc(NCc4ccccn4)c23)cc1` [Example 315, [5-(4-Dimethylamino-phenyl)-thieno[2,3-d]pyrimidin-4-yl]-pyridin-2-ylmethyl-amine]: 98%.
The same measure, in the same setting: as for `Cc1ccc(-c2csc3ncnc(NCc4ccccn4)c23)cc1C` [Example 316, [5-(3,4-Dimethyl-phenyl)-thieno[2,3-d]pyrimidin-4-yl]-pyridin-2-ylmethyl-amine], the figure is 98%.
Same read-out and setting: as for `FC(F)(F)Oc1ccc(-c2csc3ncnc(NCc4ccccn4)c23)cc1` [Example 317, Pyridin-2-ylmethyl-[5-(4-trifluoromethoxy-phenyl)-thieno[2,3-d]pyrimidin-4-yl]-amine], the figure is 98%; as for `Cc1ccc(-c2csc3ncnc(NCc4ccccn4)c23)cc1` [Example 318, Pyridin-2-ylmethyl-(5-p-tolyl-thieno[2,3-d]pyrimidin-4-yl)-amine], 98%.
For `c1ccc(CNc2ncnc3scc(-c4ccc5c(c4)OCO5)c23)nc1` [Example 319, (5-Benzo[1,3]dioxol-5-yl-thieno[2,3-d]pyrimidin-4-yl)-pyridin-2-ylmethyl-amine], the “% Inhibition at 1µM” value came to 97.3%.
Regarding `COCOc1ccc(-c2csc3ncnc(NCc4ccccn4)c23)cc1` [Example 324, [5-(4-Methoxymethoxy-phenyl)-thieno[2,3-d]pyrimidin-4-yl]-pyridin-2-ylmethyl-amine], the inhibition at 1 µM amounted to 93%.
The same measure, in the same setting: as for `COC(=O)c1ccc(-c2csc3ncnc(NCc4ccccn4)c23)cc1` [Example 327, 4-{4-[(Pyridin-2-ylmethyl)-amino]-thieno[2,3-d]pyrimidin-5-yl}-benzoic acid methyl ester], the figure is 83%; as for `COc1ccc(-c2csc3ncnc(NCc4ccccn4)c23)cn1` [Example 328, [5-(6-Methoxy-pyridin-3-yl)-thieno[2,3-d]pyrimidin-4-yl]-pyridin-2-ylmethyl-amine], 83%; as for `Clc1ccc(-c2csc3ncnc(NCc4ccccn4)c23)c(Cl)c1` [Example 329, [5-(2,4-Dichloro-phenyl)-thieno[2,3-d]pyrimidin-4-yl]-pyridin-2-ylmethyl-amine], 81%.
On to `FC(F)(F)c1cc(-c2csc3ncnc(NCc4ccccn4)c23)ccc1Cl` [Example 330, [5-(4-Chloro-3-trifluoromethyl-phenyl)-thieno[2,3-d]pyrimidin-4-yl]-pyridin-2-ylmethyl-amine], for which testing at 1 µM gave an inhibition of 79%.

The values above are taken from EP1641803B1, “THIENOPYRIMIDINE DERIVATIVES AS POTASSIUM CHANNEL INHIBITORS” (Xention Limited, priority 2003, dated 2004).
